Tests used:
[1] = system: Human immunodeficiency virus 1; experiment: Antiviral activity against HIV1 infected in cell culture in presence of 45 mg/ml human serum albumin and 10% FBS; type: functional, organism-based
[2] = biological target: Human immunodeficiency virus type 1 integrase (Human immunodeficiency virus 1, UniProt Q7ZJM1); experiment: Inhibition of HIV-1 integrase strand transfer activity
[3] = system: Human immunodeficiency virus 1; experiment: Antiviral activity against HIV1 infected in cell culture in presence of 10% FBS; type: functional, organism-based
[4] = Clearance in Sprague-Dawley rat at 1 mg/kg, iv; type: ADME, organism-based; design: dose 1 mg/kg, route intravenous; details: in vivo
[5] = Half life in Sprague-Dawley rat at 1 mg/kg, iv; type: ADME, organism-based; design: dose 1 mg/kg, route intravenous; details: in vivo
[6] = Tmax in Sprague-Dawley rat at 5 mg/kg, po; type: ADME, organism-based; design: dose 5 mg/kg, route oral; details: in vivo
[7] = Oral bioavailability in Sprague-Dawley rat at 5 mg/kg; type: ADME, organism-based; details: in vivo
[8] = AUC in Sprague-Dawley rat at 5 mg/kg, po; type: ADME, organism-based; design: dose 5 mg/kg, route oral; details: plasma
[9] = Cmax in Sprague-Dawley rat at 5 mg/kg, po; type: ADME, organism-based; design: dose 5 mg/kg, route oral; details: in vivo
[10] = Volume of distribution at steady state in Sprague-Dawley rat at 1 mg/kg, iv; type: ADME, organism-based; design: dose 1 mg/kg, route intravenous; details: in vivo, read-out: Vdss

Sequence of Human immunodeficiency virus type 1 integrase (Q7ZJM1 whole entry): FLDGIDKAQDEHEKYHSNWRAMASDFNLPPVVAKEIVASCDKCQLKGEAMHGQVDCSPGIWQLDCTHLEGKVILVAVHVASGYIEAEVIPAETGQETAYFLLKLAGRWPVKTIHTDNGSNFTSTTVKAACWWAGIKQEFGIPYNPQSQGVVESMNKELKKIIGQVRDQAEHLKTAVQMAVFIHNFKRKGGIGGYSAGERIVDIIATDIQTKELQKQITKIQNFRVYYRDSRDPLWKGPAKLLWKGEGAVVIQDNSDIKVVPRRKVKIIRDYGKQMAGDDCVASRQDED

SMILES	EC50 [1] [nM]	IC50 [2] [nM]	EC50 [3] [nM]	clearance [4] [mL/min/kg]	half-life [5] [min]	Tmax [6] [min]	bioavailability [7] [%]	AUC [8] [µM·h]	Cmax [9] [µM]	Vd [10] [L/kg]
Cn1c(C2(C)CCCS2)nc(C(=O)NCc2ccc(F)cc2)c(O)c1=O (racemic)	153	5	15							
Cn1c(C2CCOC2)nc(C(=O)NCc2ccc(F)cc2)c(O)c1=O (racemic)	60	4	9	4.9	97.8	40.2	68	33.9	10.5	0.14
Cn1c(C2CCOC2)nc(C(=O)NCc2ccc(F)cc2S(C)(=O)=O)c(O)c1=O (racemic)	33	9	14							
Cn1c(C2CCCCO2)nc(C(=O)NCc2ccc(F)cc2)c(O)c1=O (racemic)	301	10	49							
Cc1cnnn1-c1cc(F)ccc1CNC(=O)c1nc(C2CCOC2)n(C)c(=O)c1O (racemic)	28	10	13							
Cn1c(-c2ccco2)nc(C(=O)NCc2ccc(F)cc2)c(O)c1=O	14500	21	424							
COCCN1CCN(c2cc(F)ccc2CNC(=O)c2nc(C3CCOC3)n(C)c(=O)c2O)C1=O (racemic)	27	3	5	15	27.6					0.44
CN(C)S(=O)(=O)c1cc(F)ccc1CNC(=O)c1nc(C2CCOC2)n(C)c(=O)c1O (racemic)	25	10	4							
Cn1c(C2CCOCC2)nc(C(=O)NCc2ccc(F)cc2)c(O)c1=O	28	5	6	2.6	34.8					0.12
Cn1c(C2(C)CCCO2)nc(C(=O)NCc2ccc(F)cc2)c(O)c1=O (racemic)	120	5	10							
CN1CCN(c2cc(F)ccc2CNC(=O)c2nc(C3CCOC3)n(C)c(=O)c2O)C1=O (racemic)	30	6	7							
Cn1c(C2=CCOC2)nc(C(=O)NCc2ccc(F)cc2)c(O)c1=O	1780	19	206							
Cn1cnnc1-c1cc(F)ccc1CNC(=O)c1nc(C2CCOC2)n(C)c(=O)c1O (racemic)	27	18	28							
Cn1c(C2COCC2O)nc(C(=O)NCc2ccc(F)cc2)c(O)c1=O (racemic)	126	6	48							
CSC1COCC1c1nc(C(=O)NCc2ccc(F)cc2)c(O)c(=O)n1C (racemic)	33	3	7	3.6	64.8	100	67	39.5	8.04	0.15

The next compounds have a lower EC50 [1] than those just listed; values first:

EC50 [1] [nM]	IC50 [2] [nM]	EC50 [3] [nM]	clearance [4] [mL/min/kg]	half-life [5] [min]	Tmax [6] [min]	bioavailability [7] [%]	AUC [8] [µM·h]	Cmax [9] [µM]	Vd [10] [L/kg]	SMILES
18	6	10								Cn1c(C2CCOCC2)nc(C(=O)NCc2ccc(F)cc2-n2cncn2)c(O)c1=O
15	12	4								CN(C)S(=O)(=O)c1cc(F)ccc1CNC(=O)c1nc(C2CCOCC2)n(C)c(=O)c1O
11	11	4								Cn1c(C2CCOCC2)nc(C(=O)NCc2ccc(F)cc2N2CCCCS2(=O)=O)c(O)c1=O
7	6	2								CN1C(C)(C)CN(c2cc(F)ccc2CNC(=O)c2nc(C3CCOCC3)n(C)c(=O)c2O)S1(=O)=O
19	9	5	6	32.4	37.8	60	12.3	3.51	0.2	Cn1c(C2CCOC2)nc(C(=O)NCc2ccc(F)cc2N2CCCCS2(=O)=O)c(O)c1=O (racemic)
22	10	2								CN1C(C)(C)CN(c2cc(F)ccc2CNC(=O)c2nc(C3CCOC3)n(C)c(=O)c2O)S1(=O)=O (racemic)
18	13	8								Cc1cnnn1-c1cc(F)ccc1CNC(=O)c1nc(C2CCOCC2)n(C)c(=O)c1O
11	6	5	12	30					0.36	Cn1ncnc1-c1cc(F)ccc1CNC(=O)c1nc(C2CCOC2)n(C)c(=O)c1O (racemic)
7	9	4								Cn1ncnc1-c1cc(F)ccc1CNC(=O)c1nc(C2CCOCC2)n(C)c(=O)c1O
18	12	14	37	13.8					0.76	Cc1ncnn1-c1cc(F)ccc1CNC(=O)c1nc(C2CCOC2)n(C)c(=O)c1O (racemic)
22	16	2	31	14.4					0.36	Cn1c(C2CCOC2)nc(C(=O)NCc2ccc(F)cc2N2CCN(C(C)(C)C)S2(=O)=O)c(O)c1=O (racemic)
13	8	6	3.9	34.8					0.13	Cn1c(C2CCOCC2)nc(C(=O)NCc2ccc(F)cc2S(C)(=O)=O)c(O)c1=O
7	17	2	41	13.2					0.61	Cn1c(C2CCOCC2)nc(C(=O)NCc2ccc(F)cc2N2CCN(C(C)(C)C)S2(=O)=O)c(O)c1=O
14	8	9								Cc1ncnn1-c1cc(F)ccc1CNC(=O)c1nc(C2CCOCC2)n(C)c(=O)c1O
18	4	7	47	25.2					0.98	Cn1c(C2CCOC2)nc(C(=O)NCc2ccc(F)cc2-n2cncn2)c(O)c1=O (racemic)
